# Data taken from paper PMC7772087 (Biosensors & Bioelectronics, 2020).
# Target: T1, NF-κB p50 (Homo sapiens, UniProt P19838)
# T1 sequence (P19838 1-968): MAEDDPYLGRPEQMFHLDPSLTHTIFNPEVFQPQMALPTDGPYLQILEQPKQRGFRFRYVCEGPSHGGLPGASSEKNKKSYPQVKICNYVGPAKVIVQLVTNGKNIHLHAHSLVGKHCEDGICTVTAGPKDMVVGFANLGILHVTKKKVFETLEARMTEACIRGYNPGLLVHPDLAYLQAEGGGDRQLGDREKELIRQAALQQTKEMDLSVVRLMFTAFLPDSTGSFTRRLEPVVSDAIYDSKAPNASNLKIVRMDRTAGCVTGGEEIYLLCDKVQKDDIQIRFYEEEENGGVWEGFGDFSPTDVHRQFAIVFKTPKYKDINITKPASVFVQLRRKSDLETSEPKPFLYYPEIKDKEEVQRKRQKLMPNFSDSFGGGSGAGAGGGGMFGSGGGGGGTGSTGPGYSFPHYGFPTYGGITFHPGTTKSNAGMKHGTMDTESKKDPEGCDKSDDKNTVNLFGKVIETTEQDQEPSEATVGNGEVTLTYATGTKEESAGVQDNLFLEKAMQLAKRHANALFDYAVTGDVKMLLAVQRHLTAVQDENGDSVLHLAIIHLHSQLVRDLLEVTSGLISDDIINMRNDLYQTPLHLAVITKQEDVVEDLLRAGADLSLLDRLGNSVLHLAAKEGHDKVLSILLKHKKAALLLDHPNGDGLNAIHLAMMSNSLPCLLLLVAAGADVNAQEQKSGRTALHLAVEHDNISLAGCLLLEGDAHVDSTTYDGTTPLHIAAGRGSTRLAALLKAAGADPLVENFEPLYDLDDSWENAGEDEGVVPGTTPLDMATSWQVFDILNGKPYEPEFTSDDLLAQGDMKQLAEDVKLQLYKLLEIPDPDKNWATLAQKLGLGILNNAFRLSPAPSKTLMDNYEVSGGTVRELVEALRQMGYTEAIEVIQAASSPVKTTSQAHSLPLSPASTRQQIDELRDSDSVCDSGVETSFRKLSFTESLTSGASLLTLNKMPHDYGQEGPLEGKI
# Test: Electrochemiluminescence biosensor of recombinant p50 binding to dsDNA
smiles,measurement,value
O=C(NC1=CC(=O)[C@H]2O[C@H]2[C@H]1O)c1ccccc1O [(−)-DHMEQ],IC50,830 pM
